Results from PubChem BioAssay AID330 (DTP/NCI, 2004).
Several values for one entry are separate records, joined by “and”; a condition that tells them apart may be missing. Equal entries are not always repeated. Inconclusive results and toxic doses are left out.

Test system: P388 leukemia ip, CD2F1 mice, survival T/C
Experiment: NCI In Vivo Anticancer Drug Screen. Data for tumor model P388 Leukemia (intraperitoneal) in CD2F1 (CDF1) mice
Conditions: endpoint: median survival time, higher = longer survival
Method in brief: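 Mice carrying the transplanted tumor received test compound or vehicle. Survival was recorded in each group, and the value is the treated-group measurement divided by that of the vehicle-treated control group.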

SMILES: O=C1NC2(CCCCC2)C(=O)N1CCN(CCCl)CCCl
- T/C (dose: 0.62 mg/kg/injection, schedule: Q01DX005 (iv), vehicle: other): 108 % of control
- T/C (dose: 0.75 mg/kg/injection, schedule: Q01DX009 (ip), vehicle: saline): 112 % of control and 114 % of control and 122 % of control
- T/C (dose: 1.25 mg/kg/injection, schedule: Q01DX001 (iv), vehicle: other): 112 % of control
- T/C (dose: 1.25 mg/kg/injection, schedule: Q01DX001 (oral), vehicle: other): 101 % of control
- T/C (dose: 1.25 mg/kg/injection, schedule: Q01DX005 (iv), vehicle: other): 116 % of control
- T/C (dose: 1.25 mg/kg/injection, schedule: Q01DX009 (ip), vehicle: saline with Tween-80): 124 % of control
- T/C (dose: 1.5 mg/kg/injection, schedule: Q01DX005 (ip), vehicle: saline): 118 % of control and 119 % of control
- T/C (dose: 1.5 mg/kg/injection, schedule: Q01DX005 (ip), vehicle: suspension in saline): 119 % of control
- T/C (dose: 1.5 mg/kg/injection, schedule: Q01DX005 (iv), vehicle: suspension in saline): 101 % of control
- T/C (dose: 1.5 mg/kg/injection, schedule: Q01DX009 (ip), vehicle: Klucel (hydroxypropylcellulose) (HPC)): 164 % of control
- T/C (dose: 1.5 mg/kg/injection, schedule: Q01DX009 (ip), vehicle: other): 120 % of control
- T/C (dose: 2.5 mg/kg/injection, schedule: Q01DX001 (ip), vehicle: other): 121 % of control
- T/C (dose: 2.5 mg/kg/injection, schedule: Q01DX001 (iv), vehicle: other): 109 % of control
- T/C (dose: 2.5 mg/kg/injection, schedule: Q01DX005 (iv), vehicle: clinical formulation): 115 % of control and 121 % of control
- T/C (dose: 2.5 mg/kg/injection, schedule: Q01DX005 (iv), vehicle: other): 109 % of control
- T/C (dose: 2.5 mg/kg/injection, schedule: Q01DX005 (oral), vehicle: other): 100 % of control
- T/C (dose: 2.5 mg/kg/injection, schedule: Q01DX009 (ip), vehicle: clinical formulation): 152 % of control and 154 % of control and 180 % of control
- T/C (dose: 2.5 mg/kg/injection, schedule: Q01DX009 (ip), vehicle: other): 151 % of control
- T/C (dose: 2.5 mg/kg/injection, schedule: Q01DX009 (ip), vehicle: saline with Tween-80): 167 % of control
- T/C (dose: 2.5 mg/kg/injection, schedule: Q01DX009 (oral), vehicle: other): 109 % of control
- T/C (dose: 3.0 mg/kg/injection, schedule: Q01DX005 (iv), vehicle: suspension in saline): 105 % of control
- T/C (dose: 3.0 mg/kg/injection, schedule: Q01DX009 (ip), vehicle: Klucel (hydroxypropylcellulose) (HPC)): 166 % of control and 169 % of control
- T/C (dose: 3.0 mg/kg/injection, schedule: Q01DX009 (ip), vehicle: saline with Tween-80): 163 % of control
- T/C (dose: 3.0 mg/kg/injection, schedule: Q01DX009 (oral), vehicle: Klucel (hydroxypropylcellulose) (HPC)): 108 % of control
- T/C (dose: 3.0 mg/kg/injection, schedule: Q01DX009 (oral), vehicle: saline): 102 % of control
- T/C (dose: 5.0 mg/kg/injection, schedule: Q01DX001 (iv), vehicle: other): 105 % of control
- T/C (dose: 5.0 mg/kg/injection, schedule: Q01DX001 (oral), vehicle: other): 99 % of control
- T/C (dose: 5.0 mg/kg/injection, schedule: Q01DX005 (iv), vehicle: clinical formulation): 156 % of control
- T/C (dose: 5.0 mg/kg/injection, schedule: Q01DX005 (iv), vehicle: other): 113 % of control
- T/C (dose: 5.0 mg/kg/injection, schedule: Q01DX005 (oral), vehicle: other): 99 % of control
- T/C (dose: 5.0 mg/kg/injection, schedule: Q01DX009 (ip), vehicle: other): 175 % of control
- T/C (dose: 5.0 mg/kg/injection, schedule: Q01DX009 (oral), vehicle: other): 114 % of control
- T/C (dose: 6.0 mg/kg/injection, schedule: Q01DX005 (ip), vehicle: suspension in saline): 164 % of control
- T/C (dose: 6.0 mg/kg/injection, schedule: Q01DX005 (iv), vehicle: suspension in saline): 108 % of control
- T/C (dose: 6.0 mg/kg/injection, schedule: Q01DX009 (ip), vehicle: other): 157 % of control
- T/C (dose: 6.0 mg/kg/injection, schedule: Q01DX009 (oral), vehicle: Klucel (hydroxypropylcellulose) (HPC)): 102 % of control
- T/C (dose: 6.0 mg/kg/injection, schedule: Q01DX009 (oral), vehicle: saline): 108 % of control
- T/C (dose: 6.25 mg/kg/injection, schedule: Q01DX009 (oral), vehicle: Klucel (hydroxypropylcellulose) (HPC)): 112 % of control and 113 % of control
- T/C (dose: 8.0 mg/kg/injection, schedule: Q01DX001 (ip), vehicle: suspension in saline): 108 % of control and 116 % of control
- T/C (dose: 10.0 mg/kg/injection, schedule: Q01DX001 (iv), vehicle: other): 116 % of control
- T/C (dose: 10.0 mg/kg/injection, schedule: Q01DX001 (oral), vehicle: other): 107 % of control
- T/C (dose: 10.0 mg/kg/injection, schedule: Q01DX005 (iv), vehicle: clinical formulation): 104 % of control
- T/C (dose: 10.0 mg/kg/injection, schedule: Q01DX005 (oral), vehicle: other): 112 % of control
- T/C (dose: 10.0 mg/kg/injection, schedule: Q01DX009 (ip), vehicle: clinical formulation): 170 % of control
- T/C (dose: 10.0 mg/kg/injection, schedule: Q01DX009 (ip), vehicle: saline with Tween-80): 121 % of control
- T/C (dose: 10.0 mg/kg/injection, schedule: Q01DX009 (oral), vehicle: other): 116 % of control
- T/C (dose: 12.0 mg/kg/injection, schedule: Q01DX005 (ip), vehicle: saline): 163 % of control and 167 % of control
- T/C (dose: 12.0 mg/kg/injection, schedule: Q01DX009 (ip), vehicle: Klucel (hydroxypropylcellulose) (HPC)): 121 % of control
- T/C (dose: 12.0 mg/kg/injection, schedule: Q01DX009 (ip), vehicle: other): 168 % of control
- T/C (dose: 12.0 mg/kg/injection, schedule: Q01DX009 (oral), vehicle: Klucel (hydroxypropylcellulose) (HPC)): 117 % of control
- T/C (dose: 12.0 mg/kg/injection, schedule: Q01DX009 (oral), vehicle: other): 100 % of control
- T/C (dose: 12.0 mg/kg/injection, schedule: Q01DX009 (oral), vehicle: saline): 110 % of control
- T/C (dose: 12.5 mg/kg/injection, schedule: Q01DX009 (oral), vehicle: Klucel (hydroxypropylcellulose) (HPC)): 115 % of control and 120 % of control
- T/C (dose: 15.0 mg/kg/injection, schedule: Q01DX009 (ip), vehicle: Klucel (hydroxypropylcellulose) (HPC)): 100 % of control
- T/C (dose: 16.0 mg/kg/injection, schedule: Q01DX001 (ip), vehicle: suspension in saline): 104 % of control
- T/C (dose: 20.0 mg/kg/injection, schedule: Q01DX001 (ip), vehicle: other): 151 % of control
- T/C (dose: 20.0 mg/kg/injection, schedule: Q01DX001 (iv), vehicle: other): 122 % of control
- T/C (dose: 20.0 mg/kg/injection, schedule: Q01DX001 (oral), vehicle: other): 104 % of control
- T/C (dose: 20.0 mg/kg/injection, schedule: Q01DX005 (oral), vehicle: other): 109 % of control
- T/C (dose: 24.0 mg/kg/injection, schedule: Q01DX005 (ip), vehicle: saline): 181 % of control
- T/C (dose: 24.0 mg/kg/injection, schedule: Q01DX005 (iv), vehicle: suspension in saline): 117 % of control
- T/C (dose: 24.0 mg/kg/injection, schedule: Q01DX009 (oral), vehicle: Klucel (hydroxypropylcellulose) (HPC)): 122 % of control
- T/C (dose: 24.0 mg/kg/injection, schedule: Q01DX009 (oral), vehicle: other): 107 % of control
- T/C (dose: 24.0 mg/kg/injection, schedule: Q01DX009 (oral), vehicle: saline): 113 % of control
- T/C (dose: 25.0 mg/kg/injection, schedule: Q01DX001 (ip), vehicle: Klucel (hydroxypropylcellulose) (HPC)): 168 % of control
- T/C (dose: 25.0 mg/kg/injection, schedule: Q01DX001 (ip), vehicle: saline): 175 % of control
- T/C (dose: 32.0 mg/kg/injection, schedule: Q01DX001 (ip), vehicle: suspension in saline): 101 % of control
- T/C (dose: 32.0 mg/kg/injection, schedule: Q01DX001 (oral), vehicle: suspension in saline): 100 % of control
- T/C (dose: 40.0 mg/kg/injection, schedule: Q01DX001 (ip), vehicle: other): 181 % of control
- T/C (dose: 40.0 mg/kg/injection, schedule: Q01DX001 (oral), vehicle: other): 101 % of control
- T/C (dose: 40.0 mg/kg/injection, schedule: Q01DX005 (oral), vehicle: other): 118 % of control
- T/C (dose: 40.0 mg/kg/injection, schedule: Q01DX009 (oral), vehicle: other): 115 % of control
- T/C (dose: 48.0 mg/kg/injection, schedule: Q01DX009 (oral), vehicle: Klucel (hydroxypropylcellulose) (HPC)): 119 % of control
- T/C (dose: 48.0 mg/kg/injection, schedule: Q01DX009 (oral), vehicle: other): 103 % of control
- T/C (dose: 48.0 mg/kg/injection, schedule: Q01DX009 (oral), vehicle: saline): 119 % of control
- T/C (dose: 50.0 mg/kg/injection, schedule: Q01DX009 (oral), vehicle: Klucel (hydroxypropylcellulose) (HPC)): 155 % of control
- T/C (dose: 64.0 mg/kg/injection, schedule: Q01DX001 (ip), vehicle: saline): 163 % of control
- T/C (dose: 64.0 mg/kg/injection, schedule: Q01DX001 (ip), vehicle: suspension in saline): 101 % of control
- T/C (dose: 64.0 mg/kg/injection, schedule: Q01DX001 (oral), vehicle: saline): 99 % of control
- T/C (dose: 64.0 mg/kg/injection, schedule: Q01DX001 (oral), vehicle: suspension in saline): 106 % of control and 108 % of control
- T/C (dose: 96.0 mg/kg/injection, schedule: Q01DX009 (oral), vehicle: other): 107 % of control
- T/C (dose: 100.0 mg/kg/injection, schedule: Q01DX009 (oral), vehicle: Klucel (hydroxypropylcellulose) (HPC)): 120 % of control
- T/C (dose: 128.0 mg/kg/injection, schedule: Q01DX001 (oral), vehicle: saline): 99 % of control
- T/C (dose: 128.0 mg/kg/injection, schedule: Q01DX001 (oral), vehicle: suspension in saline): 102 % of control and 109 % of control
- T/C (dose: 256.0 mg/kg/injection, schedule: Q01DX001 (oral), vehicle: saline): 107 % of control
- T/C (dose: 256.0 mg/kg/injection, schedule: Q01DX001 (oral), vehicle: suspension in saline): 103 % of control and 105 % of control
